# According to patent US12319736B2, “Combination of antibody-drug conjugate and immune checkpoint inhibitor” (DAIICHI SANKYO COMPANY, LIMITED, priority 2016, dated 2025):
# Key:
# [1] = test system: bone marrow-derived dendritic cells; test: Effect on in vitro dendritic cells, flow cytometry (Evaluation Example 5); type: cell-based, mouse; conditions: 0.0625-1 μM, 24 hours, compared with DMSO
# Method: BALB/c mice were euthanized, and bone marrow cells were then separated from each femur, and cultured with an RPMI 1640 medium containing 10% FBS, 55 μM 2-mercaptoethanol, 100 U/mL penicillin, […], 1 mM sodium pyruvate, 1×non-essential amino acid, 2 mM L-glutamine, and 10 ng/mL mouse GM-CSF for 11 days to induce bone marrow-derived dendritic cells. To the culture solution for the induced dendritic cells, the compound (A) was added to a concentration of 0.0625 μM, 0.125 μM, 0.25 μM, 0.5 μM, or 1 μM. For a control, DMSO in a quantity equal to that of the compound (A) was added. After 24 hours, staining was performed by using a Pacific Blue labeled anti-mouse CD45 Antibody (103126, BioLegend), PE labeled anti-mouse CD86 (B7-2) (553692, Becton Dickinson), APC labeled anti-mouse CD11c (550261, Becton Dickinson), and FITC labeled anti-mouse MHC Class II (I-A/I-E) (11-5321-85, Thermo Fisher Scientific), and analysis was performed by using an FACS Canto II. Dead cells had been stained with a LIVE/DEAD Fixable Near-IR Dead Cell Stain Kit purchased from Thermo Fisher Scientific, and excluded from the analysis.
# CT26.WT-hHER2 cells [2] = test: Analysis of in vitro cancer cells, MHC class I by flow cytometry (Evaluation Example 8); type: cell-based, mouse; conditions: 0.0625-1 μM, 24 hours, vs DMSO, Dunnett's test
# Method: (§1) To culture solution for CT26.WT-hHER2 cells, the compound (A) was added to a concentration of 0.0625 μM, 0.125 μM, 0.25 μM, 0.5 μM, or 1 μM. For a control, DMSO in a quantity equal to that of the compound (A) was added. After 24 hours, staining was performed by using PE labeled anti-human Her2/neu (340552, Becton Dickinson) and FITC labeled anti-mouse H-2Dd (110606, BioLegend), and expression levels of MHC class I on cancer cells were determined with flow cytometry. Dead cells had been stained with a LIVE/DEAD Fixable Near-IR Dead Cell Stain Kit purchased from Thermo Fisher Scientific, and excluded from the analysis. The mean fluorescence intensity (MFI) of MHC class I was calculated, and MFI for cells treated with an Isotype control was subtracted from the MFI for stained cells, and the resulting value was used as adjusted MFI. Comparison between the control group and the compound (A) group was performed by using Dunnett's test, P values were expressed as numerical values to the fourth decimal place, and values of P<0.05 (two-tailed test) were regarded as significant differences.
# topoisomerase I = target: T1, topoisomerase I (Homo sapiens, UniProt P11387); conditions: Ogitani Y. et al., Clinical Cancer Research 2016; cited from earlier work
# T1 sequence (P11387 1-765): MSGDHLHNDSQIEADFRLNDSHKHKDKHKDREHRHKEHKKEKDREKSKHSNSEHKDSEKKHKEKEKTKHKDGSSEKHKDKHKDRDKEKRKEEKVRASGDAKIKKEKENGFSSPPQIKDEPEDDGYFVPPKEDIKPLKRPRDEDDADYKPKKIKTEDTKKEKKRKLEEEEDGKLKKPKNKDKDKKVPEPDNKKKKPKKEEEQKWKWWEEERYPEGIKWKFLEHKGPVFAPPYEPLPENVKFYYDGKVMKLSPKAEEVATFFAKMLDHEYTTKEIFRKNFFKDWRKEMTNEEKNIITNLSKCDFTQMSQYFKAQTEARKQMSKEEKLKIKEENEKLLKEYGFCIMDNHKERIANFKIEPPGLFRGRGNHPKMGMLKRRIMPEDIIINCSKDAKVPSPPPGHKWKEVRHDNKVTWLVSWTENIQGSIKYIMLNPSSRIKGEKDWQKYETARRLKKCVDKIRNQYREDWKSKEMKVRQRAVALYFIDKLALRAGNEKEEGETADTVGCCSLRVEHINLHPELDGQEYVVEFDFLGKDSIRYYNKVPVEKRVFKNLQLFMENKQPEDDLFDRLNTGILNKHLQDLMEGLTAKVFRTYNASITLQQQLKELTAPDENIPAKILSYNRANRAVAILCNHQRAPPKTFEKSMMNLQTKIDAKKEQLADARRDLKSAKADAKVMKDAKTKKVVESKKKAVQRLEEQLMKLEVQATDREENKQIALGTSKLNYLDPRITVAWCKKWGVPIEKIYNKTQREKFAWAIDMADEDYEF
# CT26.WT-hHER2 cells [3] = test: Analysis of in vitro cancer cells treated with different compounds, MHC class I (Evaluation Example 17); type: cell-based, mouse; conditions: 20 nM, 100 nM, 500 nM; vs control group, Dunnett's test; agents: compound (A), DM1-SMe, DM4-SMe, MMAE
# Method: as §1
# Expression levels of MHC class I were determined for cancer cells treated with different compounds. […]
smiles,measurement,setting,value
CC[C@@]1(O)C(=O)OCc2c1cc1n(c2=O)Cc2c-1nc1cc(F)c(C)c3c1c2[C@@H](NC(=O)CO)CC3 [compound (A)],expression level of CD86 on CD11c-positive cells,[1],elevated
same,expression level of MHC class II on CD11c-positive cells,[1],elevated
same,expression level of MHC class I on CT26.WT-hHER2 cells (adjusted MFI),CT26.WT-hHER2 cells [2],significantly elevated
same,topoisomerase I inhibitory effect,topoisomerase I,confirmed to have a topoisomerase I inhibitory effect
same,expression level of MHC class I on CT26.WT-hHER2 cells,CT26.WT-hHER2 cells [3],maximum elevation effect
